Experiments:
[1] = test system: suspension-cultured cells of Eriobotrya japonica; assay: Addition of inducing agent (elicitor) at the production stage of two-stage high cell-density suspension culture; format: cell-based; settings: for Productivity of Corosolic acid / Productivity of Corosolic acid (% DW) / Cell Dry Weight: 14 days
Procedure: The cell dry weight was obtained by filtering sampled plant cell culture through Watman no. 4 filter paper using a Buchner funnel, and oven drying at a temperature of 60° C. for 24 hours. […] The % DW (Dry Weight) was calculated from the calculated concentration of corosolic acid. […] The volumetric productivity (mg/L) was calculated by multiplying the calculated % DW content with the cell concentration (g/L, DW) in cell culture. 50 ml of the cell lines which were obtained in EXAMPLE 1-2 were cultured in LS medium with addition of 10 μM of NAA and 1 μM of BA, and collected after 7 days, and 50 ml of 2× concentration of mB5 medium were mixed and cultured in a 250 ml flask. […] The Eriobotrya japonica cells were cultured according to the method of Example 3,except that the concentration of sucrose added to the mB5 medium as the carbon source at the production stage, and the inoculation ratio of Eriobotrya japonica cell were varied as in Table 7. […] In the two-stage culture by using high cell-density culture of Example 4, 6% of sucrose was added to mB5 medium at the production stage, and the inoculated amount was 6 g/L cell dry weight.

[2] = cited from earlier work
[3] = test system: absorption of glucose into cells; settings: similar to that of insulin; Chem Pharm. Bull. 41(12): 2129-2131, 1993; cited from earlier work
[4] = AgNO3 2 μM, added at 0-day culture
[5] = AgNO3 4 μM, added at 0 day culture
[6] = AgNO3 6 μM, added at 0-day culture
[7] = Methyl jasmonate 400 μM, added at 3-day culture
[8] = Sodium butyrate 1.0 mM, added at 3-day culture

O=[N+]([O-])[O-].[Ag+] [AgNO3, silver nitrate]
maximal concentration of cell increased by ([1]; 4 μM added, versus control): 45%
productivity of the suspension-cultured cell ([1]; 2-6 μM added to the culture medium, versus control): increased the productivity
Productivity of Corosolic acid [1, 4]: 1152.07 mg/L
Productivity of Corosolic acid (% DW) [1, 4]: 4.42 % DW
Cell Dry Weight ([1]; AgNO3 2 μM, added at 0-day culture, mB5, 6% sucrose, 6 g/L inoculum): 26.05 g/L
Cell Dry Weight [1, 5]: 25.66 g/L
Productivity of Corosolic acid [1, 5]: 1551.78 mg/L
Productivity of Corosolic acid (% DW) [1, 5]: 6.05 % DW
Cell Dry Weight [1, 6]: 24.57 g/L
Productivity of Corosolic acid [1, 6]: 1335.86 mg/L
Productivity of Corosolic acid (% DW) [1, 6]: 5.44 % DW

CC/C=C\CC1C(=O)CCC1CC(=O)OC (stereo not shown) [Methyl jasmonate]
amount of corosolic acid increased by ([1]; 400 μM methyl jasmonate, versus control): 100%
Cell Dry Weight [1, 7]: 22.72 g/L
Productivity of Corosolic acid [1, 7]: 1913.16 mg/L
Productivity of Corosolic acid (% DW) [1, 7]: 8.42 % DW

CCCC(=O)[O-].[Na+] [Sodium butyrate]
amount of corosolic acid increased by ([1]; 1 mM sodium butylate, versus control): 100%
Cell Dry Weight [1, 8]: 24.54 g/L
Productivity of Corosolic acid [1, 8]: 2081.13 mg/L
Productivity of Corosolic acid (% DW) [1, 8]: 8.48 % DW

corosolic acid
effect on blood-sugar levels ([2]; clinical demonstration, Journal of Ethnopharmacology 87: 115 117, 2003): rawer blood-sugar levels
side effects ([2]; in vivo): without any side effects
activity on absorption of glucose into cells [3]: promoting a rapid absorption of glucose into cells

From patent publication US8101411B2, “Method for production of corosolic acid in suspension culture of plant cells” (Samyang Genex Corporation, priority 2005, dated 2012)
